From paper PMC5429603, “Discovery and characterization of verinurad, a potent and specific inhibitor of URAT1 for the treatment of hyperuricemia and gout” (Scientific Reports, 2017)
Where a chain is given by its changes, count along the chain named. pIC50, pKi: −log10 of the molar value. Read-outs that look alike come from different tables or passages of the source. Each block holds one compound with its values, some of them ahead of it.

Key:
human URAT1 [1] = target: T1, human URAT1 (Homo sapiens, UniProt Q96S37); test: URAT1 binding assay with 3H-verinurad, human URAT1 membranes; conditions: for mode of inhibition of 3H-verinurad binding: human URAT1 membranes
T1 sequence (Q96S37 1-553): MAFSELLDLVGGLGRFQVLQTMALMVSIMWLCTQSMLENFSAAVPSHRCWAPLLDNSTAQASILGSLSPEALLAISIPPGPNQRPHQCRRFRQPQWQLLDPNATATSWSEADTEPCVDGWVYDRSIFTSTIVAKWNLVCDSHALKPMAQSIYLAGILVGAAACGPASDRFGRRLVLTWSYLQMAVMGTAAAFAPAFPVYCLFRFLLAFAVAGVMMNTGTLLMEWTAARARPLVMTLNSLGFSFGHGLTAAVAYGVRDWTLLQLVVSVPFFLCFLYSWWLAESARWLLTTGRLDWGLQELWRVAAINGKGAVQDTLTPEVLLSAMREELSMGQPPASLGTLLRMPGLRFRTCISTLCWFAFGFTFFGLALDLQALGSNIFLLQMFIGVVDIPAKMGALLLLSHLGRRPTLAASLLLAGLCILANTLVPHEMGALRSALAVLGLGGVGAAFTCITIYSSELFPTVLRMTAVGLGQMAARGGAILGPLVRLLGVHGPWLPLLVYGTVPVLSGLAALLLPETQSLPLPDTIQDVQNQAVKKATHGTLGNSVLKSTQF
Procedure: Membranes were prepared from cells transfected on the previous day with URAT1 expression constructs. Cells (5–10 × 10^8) were harvested in 1 ml ice-cold binding buffer (25 mM HEPES pH 7.3, 125 mM sodium gluconate) containing complete, EDTA-free protease inhibitor cocktail (Sigma). Cells were lysed with 100 strokes in a 2 ml dounce homogenizer using a tight-fitting “B” stem. Lysates were transferred to 1.5 mL Eppendorf tubes and centrifuged at 250 rcf for 5 minutes at 2 °C, and supernatants were transferred to fresh tubes and centrifuged again at 18,000 rcf for 20 minutes at 2 °C. The pellets (membrane fractions) were resuspended in 1 ml of ice-cold binding buffer containing protease inhibitors and frozen at −80 °C. Protein was measured using the Bio-Rad protein assay dye reagent concentrate.
Samples were then rapidly filtered through 25 mm glass fiber/1.2 µM PES 96-well filter plates (Corning FiltrEX 3510), and washed once with 200 µl ice-cold binding buffer. The plates were then subjected to scintillation counting. All samples were assayed in triplicate.
GraphPad Prism software was used for non-linear regression and statistical analyses. […] For kinetic measurements (K m and B max values), the “one site – specific binding” equation was used, after subtracting transport or binding measurements from control transfected cells. Statistical significance was assessed using Student’s unpaired t-tests.

human URAT1 h-F241Y = target: T2, human URAT1 h-F241Y (Homo sapiens, UniProt Q96S37, F241Y); test: URAT1 activity assay, h-F241Y; type: cell-based
T2 construct: expressed in transfected cells; host or cells: HEK-293T
T2 sequence (Q96S37 1-553 F241Y): T1 sequence (Q96S37 1-553) with F241Y
Text: (§1) Human URAT1 (GenBank BC053348.1, Homo sapiens SLC22A12), rat URAT1 (NCBI NM_001034943.1, Rattus norvegicus Slc22a12) and human OAT4 (NCBI NM_018484.2, Homo sapiens SLC22A11) genes were purchased from Origene Technologies, Inc. and subcloned into pCMV6/neo using NotI. Where indicated, controls transfections used pCMV6/neo. Mutants were produced by site-directed mutagenesis using the QuikChange Lightning Multi Site-Directed Mutagenesis Kit (Agilent Technologies). […] Mutagenic primer sequences are provided in ref. [15] and mutagenic primer sequences for previously unreported mutants shown in Supplementary Table 1. All constructs used in this study were untagged. Human OAT1 was purchased from Fisher Scientific (catalog # MHS1010–7508183 in pSPORT6, NCBI NM_153276.2, Homo sapiens SLC22A6).
(§2) HEK-293T cells were maintained in DMEM/high glucose/L-glutamine/HEPES supplemented with 1 mM sodium pyruvate (Life Technologies) and 10% FBS (PAA Laboratories) at 37 °C in 5% CO2. To express URAT1, OAT4 or OAT1, plasmids were reverse transfected into HEK-293T cells. DNA (10 µg) was mixed with 30 µl of DreamFect Gold (Boca Scientific) in 2 ml OptiMem (Life Technologies). After 20 minutes, 18 ml of media containing 2 × 10^7 cells in suspension was added and mixed, and 200 µl per well were plated onto white clear-bottomed poly-D-lysine coated 96-well plates (BD Biosciences). The cells were assayed the following day.
(§3) URAT1 and OAT4 activity assays were performed in assay buffer consisting of 25 mM MES pH 5.5 (from a 1 M MES solution [Sigma] adjusted to pH 5.5 with sodium hydroxide), 125 mM sodium gluconate, 4.8 mM potassium gluconate, 1.2 mM monobasic potassium phosphate, 1.2 mM magnesium sulfate, 1.3 mM calcium gluconate and 5.6 mM glucose. URAT1 inhibitors were serially diluted into assay buffer and added to the cells for 5 minutes prior to addition of substrate. URAT1-expressing cells were incubated with 100 µM ^14C-uric acid for 10 minutes and OAT4-expressing cells were incubated with 20 µM carboxyfluorescein (Life Technologies, Inc.) for 5 minutes. Cells were then washed three times in 25 mM MES pH 5.5/125 mM sodium gluconate, and solubilized in Ultima Gold (Perkin Elmer) prior to liquid scintillation counting. Each treatment was measured in triplicate.

human URAT1 h-F449Y = target: T3, human URAT1 h-F449Y (Homo sapiens, UniProt Q96S37, F449Y); test: URAT1 activity assay, h-F449Y; type: cell-based
T3 construct: expressed in transfected cells; host or cells: HEK-293T
T3 sequence (Q96S37 1-553 F449Y): T1 sequence (Q96S37 1-553) with F449Y
Text: as §1, §2, §3

human URAT1 h-R477K = target: T4, human URAT1 h-R477K (Homo sapiens, UniProt Q96S37, R477K); test: URAT1 activity assay, h-R477K; type: cell-based
T4 construct: expressed in transfected cells; host or cells: HEK-293T
T4 sequence (Q96S37 1-553 R477K): T1 sequence (Q96S37 1-553) with R477K
Text: as §1, §2, §3

human URAT1 [2] = target: T1, human URAT1; test: URAT1 activity assay (14C-uric acid transport), human URAT1; type: cell-based; set-up: host or cells: HEK-293T; conditions: human URAT1 wild type in HEK-293T; 100 µM 14C-uric acid, pH 5.5; read-out: IC50, inhibition of transport activity
Procedure: as §2, §3

Rat URAT1-N35S = target: T5, Rat URAT1-N35S (Rattus norvegicus, UniProt Q3ZAV1, N35S); test: Uric acid transport kinetics, rat URAT1-N35S; type: cell-based
T5 construct: expressed in transfected cells; host or cells: HEK-293T
T5 sequence (Q3ZAV1 whole entry N35S): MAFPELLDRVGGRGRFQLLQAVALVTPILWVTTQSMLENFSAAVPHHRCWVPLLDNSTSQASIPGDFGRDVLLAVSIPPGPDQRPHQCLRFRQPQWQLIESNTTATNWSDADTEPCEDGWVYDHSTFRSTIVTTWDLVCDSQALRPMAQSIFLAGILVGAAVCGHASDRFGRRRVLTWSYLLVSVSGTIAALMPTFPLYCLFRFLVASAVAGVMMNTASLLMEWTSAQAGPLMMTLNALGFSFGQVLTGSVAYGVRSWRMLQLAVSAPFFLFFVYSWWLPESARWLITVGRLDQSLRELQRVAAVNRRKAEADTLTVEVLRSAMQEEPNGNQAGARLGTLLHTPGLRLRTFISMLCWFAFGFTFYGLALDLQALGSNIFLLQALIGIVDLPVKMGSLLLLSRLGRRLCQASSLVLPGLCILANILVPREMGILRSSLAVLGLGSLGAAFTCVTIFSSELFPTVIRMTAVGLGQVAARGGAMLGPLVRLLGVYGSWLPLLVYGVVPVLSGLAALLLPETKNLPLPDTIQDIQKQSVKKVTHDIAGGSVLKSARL

rat URAT1-Y365F [3] = target: T6, rat URAT1-Y365F (Rattus norvegicus, UniProt Q3ZAV1, Y365F); test: Uric acid transport kinetics, rat URAT1-Y365F; type: cell-based
T6 construct: expressed in transfected cells; host or cells: HEK-293T
T6 sequence (Q3ZAV1 1-553 Y365F): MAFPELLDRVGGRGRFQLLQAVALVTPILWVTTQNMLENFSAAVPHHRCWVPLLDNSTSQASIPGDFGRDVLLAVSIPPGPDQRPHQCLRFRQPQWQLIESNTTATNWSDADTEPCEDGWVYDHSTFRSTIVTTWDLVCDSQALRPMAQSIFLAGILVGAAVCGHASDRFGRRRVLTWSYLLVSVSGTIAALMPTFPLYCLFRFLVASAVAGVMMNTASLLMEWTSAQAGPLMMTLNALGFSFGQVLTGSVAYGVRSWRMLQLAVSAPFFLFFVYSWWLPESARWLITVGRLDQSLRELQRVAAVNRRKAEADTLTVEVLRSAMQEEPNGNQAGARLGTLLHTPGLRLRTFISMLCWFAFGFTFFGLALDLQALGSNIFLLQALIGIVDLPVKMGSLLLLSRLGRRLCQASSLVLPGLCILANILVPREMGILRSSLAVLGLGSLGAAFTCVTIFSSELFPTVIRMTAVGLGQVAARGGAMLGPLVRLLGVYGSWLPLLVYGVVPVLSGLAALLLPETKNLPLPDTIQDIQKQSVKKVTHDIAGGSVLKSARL

Rat URAT1-N35S/Y365F = target: T7, Rat URAT1-N35S/Y365F (Rattus norvegicus, UniProt Q3ZAV1, N35S/Y365F); test: Uric acid transport kinetics, rat URAT1-N35S/Y365F; type: cell-based
T7 construct: expressed in transfected cells; host or cells: HEK-293T
T7 sequence (Q3ZAV1 whole entry N35S/Y365F): as the sequence (Q3ZAV1 whole entry N35S) above, with Y365F counted along it
Procedure: as §2
as §3, with “Cells were then washed three times in 25 mM MES pH 5.5/125 mM sodium gluconate, and solubilized in Ultima Gold (Perkin Elmer) prior to liquid scintillation counting.” left out

rat URAT1 = target: T8, rat URAT1 (Rattus norvegicus, UniProt Q3ZAV1); set-up: method as in Tan et al., 2016; conditions: cited from earlier work
T8 construct: host or cells: HEK-293T
T8 sequence (Q3ZAV1 1-553): T6 sequence (Q3ZAV1 1-553 Y365F) with F365Y

rat URAT1-Y365F [4] = target: T6, rat URAT1-Y365F; set-up: method as in Tan et al., 2016; conditions: ref Tan et al., 2016; cited from earlier work
human URAT1 [5] = target: T1, human URAT1; test: Uric acid transport kinetics, human URAT1; type: cell-based; set-up: host or cells: HEK-293T; conditions: human URAT1 vs rat URAT1
Procedure: as §2
as §3, with “Cells were then washed three times in 25 mM MES pH 5.5/125 mM sodium gluconate, and solubilized in Ultima Gold (Perkin Elmer) prior to liquid scintillation counting.” left out

human URAT1 [6] = target: T1, human URAT1; set-up: host or cells: HEK-293T; method as in Tan et al., 2016; conditions: cited from earlier work
[7] = ref Tan et al., 2016, listed as urate

mode of inhibition of 3H-verinurad binding (human URAT1 [1]): competitive mode of inhibition
Compound: CCc1oc2ccccc2c1C(=O)c1cc(Br)c(O)c(Br)c1 [benzbromarone, Benzbromarone]

mode of inhibition of 3H-verinurad binding (human URAT1 [1]): competitive mode of inhibition
Compound: CCCN(CCC)S(=O)(=O)c1ccc(C(=O)O)cc1 [probenecid]

fold reduced affinity compared to human URAT1 (human URAT1 h-F241Y; h-F241Y): 7 fold | pIC50 (human URAT1 h-F241Y; h-F241Y binding site point mutant): 4.64 | fold reduced affinity compared to human URAT1 (human URAT1 h-F449Y; h-F449Y): 3 fold | pIC50 (human URAT1 h-F449Y; h-F449Y binding site point mutant): 5.01 | fold increased affinity compared to human URAT1 (human URAT1 h-R477K; h-R477K): 2 fold | pIC50 (human URAT1 h-R477K; h-R477K binding site point mutant): 5.70 | pIC50 (human URAT1 [2]): 5.47 | pIC50 (human URAT1 [1]): 5.07 | pKi (human URAT1 [1]): 4.28 | mode of inhibition of 3H-verinurad binding (human URAT1 [1]): competitive mode of inhibition
Compound: O=C1C(CC[S+]([O-])c2ccccc2)C(=O)N(c2ccccc2)N1c1ccccc1 (centres unmarked) [sulfinpyrazone, reference compound]

K m (µM), uric acid transport affinity (Rat URAT1-N35S; Rat URAT1-N35S): 697 ± 93 µM | urate affinity phenotype relative to rat URAT1 (Rat URAT1-N35S; rat URAT1-N35S): no phenotype | fold increase in urate affinity over rat URAT1 (rat URAT1-Y365F [3]): 1.5 fold | K m (µM), uric acid transport affinity (Rat URAT1-N35S/Y365F; Rat URAT1-N35S/Y365F): 222 ± 16 µM | fold increase in urate affinity relative to rat URAT1 (Rat URAT1-N35S/Y365F; rat URAT1-N35S/Y365F): ~4 fold | fold higher affinity for urate of human URAT1 relative to rat URAT1 (human URAT1 [5]): 7 fold
Compound: O=c1[nH]c(=O)c2[nH]c(=O)[nH]c2[nH]1 [uric acid]
K m (µM), uric acid transport affinity (rat URAT1; [7]): 857 µM | K m (µM), uric acid transport affinity (rat URAT1; ref Tan et al., 2016): 857 ± 6 µM | K m (µM), uric acid transport affinity (rat URAT1-Y365F [4]): 560 ± 28 µM | K m (µM), uric acid transport affinity (human URAT1 [6]; [7]): 122 µM | K m (µM), uric acid transport affinity (human URAT1 [6]; ref Tan et al., 2016): 122 ± 3 µM
